From US20050222200A1, “AMIDE DERIVATIVES AS ION CHANNEL LIGANDS AND PHARMACEUTICAL COMPOSITIONS AND METHODS OF USING THE SAME” (Renovis, Inc., priority 2003, published 2005) come the findings set out here.

Each structure is given as a SMILES string.

Chain of VR1 (Rattus norvegicus, UniProt O35433) (O35433 whole entry): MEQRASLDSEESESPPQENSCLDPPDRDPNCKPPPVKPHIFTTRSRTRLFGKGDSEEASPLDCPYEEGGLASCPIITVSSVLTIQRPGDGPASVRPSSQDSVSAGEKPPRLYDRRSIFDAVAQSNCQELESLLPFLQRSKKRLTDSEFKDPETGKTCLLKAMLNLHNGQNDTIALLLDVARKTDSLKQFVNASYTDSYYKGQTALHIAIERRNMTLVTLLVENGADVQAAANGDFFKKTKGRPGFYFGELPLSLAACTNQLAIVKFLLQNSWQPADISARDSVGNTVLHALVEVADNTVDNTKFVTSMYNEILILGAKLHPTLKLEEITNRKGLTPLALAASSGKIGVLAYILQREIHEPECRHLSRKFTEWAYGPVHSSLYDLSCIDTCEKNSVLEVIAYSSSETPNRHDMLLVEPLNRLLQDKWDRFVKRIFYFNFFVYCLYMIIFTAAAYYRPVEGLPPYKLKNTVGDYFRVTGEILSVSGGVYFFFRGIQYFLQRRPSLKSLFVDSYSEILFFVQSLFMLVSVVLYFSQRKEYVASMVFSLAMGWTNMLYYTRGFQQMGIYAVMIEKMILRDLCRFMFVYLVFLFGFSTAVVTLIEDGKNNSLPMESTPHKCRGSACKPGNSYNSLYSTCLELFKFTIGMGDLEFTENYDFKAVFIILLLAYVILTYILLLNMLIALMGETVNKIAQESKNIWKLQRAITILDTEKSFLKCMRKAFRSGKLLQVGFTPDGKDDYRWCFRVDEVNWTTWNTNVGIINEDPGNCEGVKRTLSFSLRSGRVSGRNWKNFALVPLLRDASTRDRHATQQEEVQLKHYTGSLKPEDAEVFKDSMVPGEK
T1 sequence (Q8NER1 whole entry, species assumed): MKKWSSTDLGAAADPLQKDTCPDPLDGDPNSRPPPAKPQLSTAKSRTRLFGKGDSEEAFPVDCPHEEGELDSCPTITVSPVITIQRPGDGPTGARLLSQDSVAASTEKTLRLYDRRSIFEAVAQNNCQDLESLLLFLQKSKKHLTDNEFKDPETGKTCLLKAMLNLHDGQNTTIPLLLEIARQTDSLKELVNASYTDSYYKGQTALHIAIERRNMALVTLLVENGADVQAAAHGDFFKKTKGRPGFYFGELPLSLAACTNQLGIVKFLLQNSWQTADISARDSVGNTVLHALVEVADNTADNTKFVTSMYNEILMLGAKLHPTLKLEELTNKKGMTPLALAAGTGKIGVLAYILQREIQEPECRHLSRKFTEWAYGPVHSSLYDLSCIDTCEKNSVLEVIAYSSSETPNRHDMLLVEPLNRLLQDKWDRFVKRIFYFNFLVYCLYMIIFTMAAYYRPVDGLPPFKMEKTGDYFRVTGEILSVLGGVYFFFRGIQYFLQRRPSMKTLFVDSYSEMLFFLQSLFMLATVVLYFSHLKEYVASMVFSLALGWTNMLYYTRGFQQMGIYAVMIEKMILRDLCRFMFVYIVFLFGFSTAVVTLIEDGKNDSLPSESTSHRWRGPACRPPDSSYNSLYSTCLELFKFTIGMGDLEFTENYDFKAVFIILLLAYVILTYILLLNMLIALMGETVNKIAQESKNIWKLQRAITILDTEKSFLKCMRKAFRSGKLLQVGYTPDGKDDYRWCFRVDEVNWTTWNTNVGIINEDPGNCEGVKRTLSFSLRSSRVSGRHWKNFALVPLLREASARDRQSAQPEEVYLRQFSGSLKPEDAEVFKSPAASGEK

One experiment concerns the target T1, VR1 (Homo sapiens, UniProt Q8NER1).
T1 construct: expressed in transfected cells; host or cells: 293 cells ("293 neurons" [sic])
The experiment is described as follows: High throughput calcium imaging assay of VR1 antagonists (Fura2, Flex Station, 96 well). Format: cell-based. The note with it: Table 1 activity class.
For `CCC/C=C/c1ccc(C(=O)NCCCC)cc1` [Compound 197], the “inhibition of calcium ion influx induced by capsaicin stimulation” value (“inhibition of calcium ion influx induced” below) is “+ (compound exhibited 0-25% inhibition of calcium ion influx induced by capsaicin stimulation)”.

Turning to `CC(C)(C)/C=C/c1ccc(C(=O)Nc2ccncc2)cc1` [Compound 52], the “inhibition of calcium ion influx induced” value is “++++ (compound exhibited 75% or greater inhibition of calcium ion influx induced by capsaicin stimulation)”. On the same count and under the same terms, under `CCC/C=C/c1ccc(C(=O)NCCCCC)cc1` [Compound 193] stands “++ (compound exhibited 25-50% inhibition of calcium ion influx induced by capsaicin stimulation)”. In the case of `COc1ccc(NC(=O)c2ccc(/C=C/C(C)(C)C)cc2)cc1Cl` [Compound 37], the “inhibition of calcium ion influx induced” value is “+ (compound exhibited 0-25% inhibition of calcium ion influx induced by capsaicin stimulation)”. For the compound `COc1cc(CNC(=O)c2ccc(/C=C/C(C)C)cc2)cc(OC)c1OC` [Compound 117], the “inhibition of calcium ion influx induced” value is on record as “+ (compound exhibited 0-25% inhibition of calcium ion influx induced by capsaicin stimulation)”. The same measure, in the same setting: under `CCC/C=C/c1ccc(C(=O)NC2CCC(Cc3ccccc3)CC2)cc1` (stereo not drawn) [Compound 207] stands “++ (compound exhibited 25-50% inhibition of calcium ion influx induced by capsaicin stimulation)”; under `CC(C)/C=C/c1ccc(C(=O)Nc2cccnc2)cc1` [Compound 106], “++ (compound exhibited 25-50% inhibition of calcium ion influx induced by capsaicin stimulation)”; under `CC(C)(C)/C=C/c1ccc(C(=O)Nc2ccccc2CCO)cc1` [Compound 39], “++++ (compound exhibited 75% or greater inhibition of calcium ion influx induced by capsaicin stimulation)”. Consider `CCc1ccnc(NC(=O)c2ccc(/C=C/C(C)(C)C)cc2)c1` [Compound 72], for which the “inhibition of calcium ion influx induced” value is given as “+ (compound exhibited 0-25% inhibition of calcium ion influx induced by capsaicin stimulation)”. On the same count and under the same terms, as for `CC(C)c1ccc(NC(=O)c2ccc(/C=C/C(C)(C)C)cc2)cc1` [Compound 41], the entry is “++ (compound exhibited 25-50% inhibition of calcium ion influx induced by capsaicin stimulation)”. `CCC(C)(C)NC(=O)c1ccc(/C=C/C(C)C)cc1` [Compound 164]: the “inhibition of calcium ion influx induced” value is “+ (compound exhibited 0-25% inhibition of calcium ion influx induced by capsaicin stimulation)”.

In the case of `CC(C)(C)/C=C/c1ccc(C(=O)NCc2ccc3c(c2)OCO3)cc1` [Compound 17], the “inhibition of calcium ion influx induced” value was “+ (compound exhibited 0-25% inhibition of calcium ion influx induced by capsaicin stimulation)”. With `Cc1ccc(NC(=O)c2ccc(/C=C/C(C)C)cc2)c(C)c1` [Compound 156], the “inhibition of calcium ion influx induced” value was “+ (compound exhibited 0-25% inhibition of calcium ion influx induced by capsaicin stimulation)”. For the compound `CC(C)(C)/C=C/c1ccc(C(=O)Nc2ccc(C3CCCCC3)cc2)cc1` [Compound 43], the “inhibition of calcium ion influx induced” value was “+ (compound exhibited 0-25% inhibition of calcium ion influx induced by capsaicin stimulation)”. As to `CC(C)(C)/C=C/c1ccc(C(=O)NCc2ccncc2)cc1` [Compound 49], the “inhibition of calcium ion influx induced” value is reported as “++++ (compound exhibited 75% or greater inhibition of calcium ion influx induced by capsaicin stimulation)”. For the compound `CC(C)(C)/C=C/c1ccc(C(=O)NCc2cccnc2)cc1` [Compound 80], the “inhibition of calcium ion influx induced” value is on record as “+ (compound exhibited 0-25% inhibition of calcium ion influx induced by capsaicin stimulation)”. On to `CCC/C=C/c1ccc(C(=O)NCc2ccccn2)cc1` [Compound 216], for which the “inhibition of calcium ion influx induced” value was “+ (compound exhibited 0-25% inhibition of calcium ion influx induced by capsaicin stimulation)”. Same read-out and setting: under `CCC/C=C/c1ccc(C(=O)NCC2CCCO2)cc1` (stereo not drawn) [Compound 206] stands “+ (compound exhibited 0-25% inhibition of calcium ion influx induced by capsaicin stimulation)”; under `CC(C)(C)/C=C/c1ccc(C(=O)Nc2nccs2)cc1` [Compound 55], “+ (compound exhibited 0-25% inhibition of calcium ion influx induced by capsaicin stimulation)”. `CC(C)(C)/C=C/c1ccc(C(=O)NC2CCC(Cc3ccccc3)CC2)cc1` (stereo not drawn) [Compound 56]: the “inhibition of calcium ion influx induced” value was “+ (compound exhibited 0-25% inhibition of calcium ion influx induced by capsaicin stimulation)”. Turning to `CCC/C=C/c1ccc(C(=O)NCCN2CCCC2)cc1` [Compound 192], the “inhibition of calcium ion influx induced” value was “+ (compound exhibited 0-25% inhibition of calcium ion influx induced by capsaicin stimulation)”.

Take `CC(C)/C=C/c1ccc(C(=O)Nc2cccc(C#N)c2)cc1` [Compound 150]: the “inhibition of calcium ion influx induced” value is recorded as “++ (compound exhibited 25-50% inhibition of calcium ion influx induced by capsaicin stimulation)”. On the same count and under the same terms, under `CC(C)/C=C/c1ccc(C(=O)NCc2cccc(F)c2)cc1` [Compound 143] stands “+ (compound exhibited 0-25% inhibition of calcium ion influx induced by capsaicin stimulation)”. `COc1ccc(CNC(=O)c2ccc(/C=C/C(C)(C)C)cc2)cc1OC` [Compound 35]: the “inhibition of calcium ion influx induced” value is listed as “+ (compound exhibited 0-25% inhibition of calcium ion influx induced by capsaicin stimulation)”. On to `Cc1ccc2[nH]c(=O)c3ccc(/C=C/C(C)(C)C)cc3c2c1` [Compound 45], for which the “inhibition of calcium ion influx induced” value is recorded as “++++ (compound exhibited 75% or greater inhibition of calcium ion influx induced by capsaicin stimulation)”. Consider `CC(C)(C)/C=C/c1ccc(C(=O)Nc2ccnc(Cl)c2)cc1` [Compound 76], for which the “inhibition of calcium ion influx induced” value is “++++ (compound exhibited 75% or greater inhibition of calcium ion influx induced by capsaicin stimulation)”.

The target in the next experiment is VR1 (Rattus norvegicus, UniProt O35433). As to the kind of experiment: Calcium imaging assay: inhibition of capsaicin induced calcium influx in DRG neurons (Fura2, microscope). Also noted: endogenous in cells; host or cells: DRG neurons. The note with it: capsaicin stimulation; class symbols per legend. It is filed as cell-based. How it is done:
VR1 protein is a heat-gated cation channel that […] resulting in neuronal membrane depolarization and elevated intracellular calcium levels. Therefore the functional activity of compounds at the VR1 receptor may be determined by measuring changes in intracellular calcium levels in neurons such as the dorsal root ganglion.
DRG neurons were grown on PDL coated 96-well black-walled plates, in the presence of DMEM medium containing 5% Penstrep, 5% Glutamax, 200 μg/ml hygromycin, 5 μg/ml blasticide and 10% heat inactivated FBS. Prior to assay, cells were loaded with 5 μg/ml Fura2 in normal saline solution at 37° C for 40 minutes. Cells were then washed with normal saline to remove dye before commencement of the experiment.
The plated neurons were transferred into a chamber on the stage of a Nikon eclipse TE300 microscope after which neurons were allowed to attain a stable fluorescence for about 10 minutes before beginning the experiment. The assay consists of two stages, a pretreatment phase followed by a treatment phase. First, a solution of the test compound was added from a multivalve perfusion system to the cells for 1 minute (pretreatment). Immediately following, capsaicin (250 nM) was added in the presence of the test compound (treatment) for a specific period between 20 and 60 seconds.
Fura2 was excited at […] to indicate relative calcium ion concentration. Changes in wavelength measurements were made throughout the course of the experiment. The fluorescence ratio was calculated by dividing fluorescence measured at 340 nm by that at 380 nM. Data was collected using Intelligent Imaging’s Slidebook software. All compounds that inhibited capsaicin induced calcium influx greater than 75% were considered positives.
Fluorescence reflecting calcium ion influx is reduced.
Consider `CC(C)(C)C#Cc1ccc(C(=O)Nc2ccc(C(F)(F)F)cn2)cn1` [Compound 433], for which the “inhibition of calcium ion influx induced” value is on record as “++ (compound exhibited 25-50% inhibition of calcium ion influx induced by capsaicin stimulation)”. Regarding `CCN(CC)c1ccc(NC(=O)c2ccc(C#CC(C)(C)C)cc2)cc1` [Compound 380], the “inhibition of calcium ion influx induced” value is “++ (compound exhibited 25-50% inhibition of calcium ion influx induced by capsaicin stimulation)”. With `CCC/C=C/c1ccc(C(=O)Nc2ccc(C(C)C)cc2)cc1` [Compound 247], the “inhibition of calcium ion influx induced” value is reported as “+ (compound exhibited 0-25% inhibition of calcium ion influx induced by capsaicin stimulation)”. In the case of `C/C(=C\C(C)(C)C)c1ccc(C(=O)Nc2ccc(C(F)(F)F)cc2)cc1` [Compound 331], the “inhibition of calcium ion influx induced” value is listed as “+++ (compound exhibited 50-75% inhibition of calcium ion influx induced by capsaicin stimulation)”. In the case of `CCCCc1ccc(NC(=O)c2ccc(/C(C)=C/C(C)(C)C)cc2)cc1` [Compound 336], the “inhibition of calcium ion influx induced” value is on record as “++ (compound exhibited 25-50% inhibition of calcium ion influx induced by capsaicin stimulation)”.

As to `CCC/C=C/c1ccc(C(=O)NCc2cccc(F)c2)cc1` [Compound 239], the “inhibition of calcium ion influx induced” value is recorded as “++ (compound exhibited 25-50% inhibition of calcium ion influx induced by capsaicin stimulation)”.

For `CC(C)(C)C#Cc1ccc(C(=O)Nc2ccc3c(c2)OCO3)cc1` [Compound 361], the “inhibition of calcium ion influx induced” value is reported as “++++ (compound exhibited 75% or greater inhibition of calcium ion influx induced by capsaicin stimulation)”.
